What follows are compounds tested against HPK1 (Homo sapiens (Human), UniProt Q92918) (assay: HPK1 Kinase Binding Assay). Settings: LanthaScreen tracer 222 binding, active HPK1, one hour at 25° C.
Procedure: A stock solution of 1 mM test compound was prepared in DMSO. The compound plate was prepared by 3-fold and 11-point serial dilutions. 0.1 μL of the compound in DMSO was transferred from the compound plate to the white 384 well polystyrene plates. The assay buffer contained 50 mM HEPES, pH 7.5, 0.01% Tween-20, 5 mM MgCl2, 0.01% BSA, and 5 mM DTT. 5 μL of 4 nM active HPK1 (SignalChem M23-11G) prepared in the buffer was added to the plate. The enzyme concentration given was based on the given stock concentration reported by the vender. […] After one hour incubation at 25° C., the plates were read on a PHERAstar FS plate reader (BMG Labtech). Ki values were determined.

Sequence of HPK1 (Q92918 1-346): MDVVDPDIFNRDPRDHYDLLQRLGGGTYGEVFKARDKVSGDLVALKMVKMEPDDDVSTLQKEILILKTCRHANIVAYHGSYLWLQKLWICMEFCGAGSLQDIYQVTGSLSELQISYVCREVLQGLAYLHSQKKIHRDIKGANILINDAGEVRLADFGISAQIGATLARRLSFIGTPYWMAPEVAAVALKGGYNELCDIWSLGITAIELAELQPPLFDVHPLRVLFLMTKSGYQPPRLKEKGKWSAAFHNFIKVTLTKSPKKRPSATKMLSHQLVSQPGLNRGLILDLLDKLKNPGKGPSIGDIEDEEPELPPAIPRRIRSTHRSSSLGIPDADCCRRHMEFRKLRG

Row | Ki | SMILES
1 | < 100 nM | COc1cccc(F)c1-c1nccc(C(=O)Nc2ccc(-c3c(C)nn(C)c3C)cc2N2C[C@@H]3C[C@H]2CN3)n1 [Example 27, N-(2-((1S,4S)-2,5-Diazabicyclo[2.2.1]heptan-2-yl)-4-(1,3,5-trimethyl-1H-pyrazol-4-yl)phenyl)-2-(2-fluoro-6-methoxyphenyl)pyrimidine-4-carboxamide]
2 | < 100 nM | COc1cccc(F)c1-c1nccc(C(=O)Nc2cc(F)c(N3CCOCC3)cc2N2C[C@@H]3C[C@H]2CN3)n1 [Example 28, N-(2-((1S,4S)-2,5-Diazabicyclo[2.2.1]heptan-2-yl)-5-fluoro-4-morpholinophenyl)-2-(2-fluoro-6-methoxyphenyl)pyrimidine-4-carboxamide]
3 | < 100 nM | COc1cccc(F)c1-c1nccc(C(=O)Nc2cc(F)c(N3CCC3)cc2N2C[C@@H]3C[C@H]2CN3)n1 [Example 29, N-(4-(Azetidin-1-yl)-2-((1S,4S)-2,5-diazabicyclo[2.2.1]heptan-2-yl)-5-fluorophenyl)-2-(2-fluoro-6-methoxyphenyl)pyrimidine-4-carboxamide]
4 | < 100 nM | COc1cccc(F)c1-c1nccc(C(=O)Nc2cc(F)c(CN3CCOCC3)cc2N2C[C@@H]3C[C@H]2CN3)n1 [Example 30, N-(2-((1S,4S)-2,5-Diazabicyclo[2.2.1]heptan-2-yl)-5-fluoro-4-(morpholinomethyl)phenyl)-2-(2-fluoro-6-methoxyphenyl)pyrimidine-4-carboxamide]

From patent US11731958B2, “Carboxamide compounds and uses thereof” (Incyte Corporation, priority 2018, dated 2023)
